Assay results: patent US8592421B2, “Cyclic bioisosters of purine system derivatives and a pharmaceutical composition based thereon” (priority 2003, dated 2013)

How the values were obtained:
thrombocytes = experiment: ADP-induced aggregation of thrombocytes in vitro (Born method, plasma enriched with thrombocytes); assay type: cell-based, rabbit; details: 3-minute incubation, ADP 10^−5 M
Method: The aggregation of thrombocytes was studied by the Born method based on determination of the changes in the optical density of plasma enriched with thrombocytes after its incubation with an aggregation inductor.
Adenozinediphosphoric acid (ADP) was selected as an aggregation inductor, which in fact is an aggregation generator. Use was made of a sample (registration number 885) of the Sigma Diagnostics Company (USA) in final concentration of 10^−5 M.
The experiments were carried out on male rabbits of the “Chinchilla” breed having a mass of 2.7±0.3 kg. 18-24 hours prior to the experiment they were deprived of feed while preserving free access to water.
To obtain plasma enriched with thrombocytes, blood was taken from a cut of a marginal vein of the rabbit ear, the sample was stabilized with 3.8% of sodium citrate solution in a ratio of 9:1 and centrifuged at 200 g (1000 rev/min) for 10 minutes. The top supernatant layer enriched with thrombocytes was transferred by an automatic dropper into a silicone test tube and kept at 37° C. The plasma enriched with thrombocytes contained, on the average, […]. If this content exceeded the specified 3×10^8 blood platelets in 1 liter, this sample was diluted to the necessary concentration with plasma deprived of thrombocytes, which was obtained by centrifuging blood at 650 g during 10 minutes.
The measurements of the optical density of the samples were made on two-channel aggregometer of the “Chronolog” Company (USA). A flask containing 490 mkl of plasma rich with thrombocytes was placed in a device, into which a magnetic agitator covered with Teflon was lowered. The index of maximum amplitude of aggregation (MA) in percent of a fall of the plasma optical density under effect of the aggregation inductor was recorded. The control index MA of plasma was compared with the MA of plasma incubated for 3 minutes with different concentrations of the compounds: from 10^−3 to 10^−7 in vitro experiments or with plasma obtained 15, 30, 60 and 120 minutes after intravenous administration of different doses of the compounds in vivo experiments.
The process of aggregation of thrombocytes was recorded with the help of a computer; on the monitor screen the there were depicted curves reflecting changes of the optical density of the plasma enriched which was taken as a standard 100% compared to the optical density of the non-thrombocyte plasma taken for 0% content of thrombocytes.
Under in vitro conditions a flask was filled with blood plasma enriched with thrombocytes, to which an aggregation inductor ADP was added at a concentration of 10^−5 M, incubated for 3 minutes, and then the compounds according to the invention were introduced directly into the flask. Their action by aggregation of thrombocytes was studied after 3-minute incubation in a wide range of concentrations from 10^−3 to 10^−7 M to minimum concentration of 10^−7M not inducing no effect of suppressing the aggregation.

[1] = Electrochemical activity: polarographic reduction on mercury dripping electrode; assay type: physicochemical; details: for i: 2.0% sodium chloride background, 9·10^−4 M; for i / −E1/2: 37° C., forward trace, average for the group of compounds; for −E1/2: vs SCE
Method: The study was carried out on a general-purpose polarograph PU-1 with a two-coordinate recorder of the “LKD” type using a three-electrode thermostatically controlled polarographic cell and mercury dripping electrode (MDE) with forced separation of the drop and a dropping period of 0.5 second. A platinum wire was used as an auxiliary electrode and a saturated calomel electrode (SCE) was used as a control electrode.
2.0% solutions of sodium chloride having pH 7.0, 7.2, 7.4, 7.6 were used as a background; the pH values of the background solution were corrected by a solution of sodium hydroxide. The polarographic cell was filled with 5.0 ml of the background solution and for 5 minutes was purged with nitrogen for removing the dissolved oxygen. Then 0.5 ml of solution of the studied substance was added to the background solution, and the polarogram was recorded as a polarographic wave. The concentration of the compounds in the polarographic cell was 9·10^−4 M.
The pH was measured on the pH-meter with an accuracy of +0.05 pH units. The polarographic measurements were carried out at a temperature of 37° C. The recording of polarograms of the investigated materials was effected under conditions of DC current at a scanning rate of the potential 10.0 mV/s with a active scanning stroke from a potential 0 to −0.5 V and sweep retrace from a −0.5 V to 0. The electric-current sensitivity was 5.0 mkA. The scale by the coordinate of the potentials was 50.0 mV/cm. The values of potentials of the half-wave E1/2 of the investigated materials are given with respect to the SCE potential.
The polarogram parameters such as a limiting current ilim and E1/2 were determined by the graphic method. The number of electrons participating in the reaction was calculated on the basis of the analysis of the polarographic wave using the Geirovsky-Ilkovich equation.
The calculation of the number of electrons participating in the reduction reaction was effected using the Geirovsky-Ilkovich equation: […]

[2] = system: embryonic fibroblasts of mouse NIH-3T3; experiment: Effect on endocellular pHi of fibroblasts (microspectrofluorimetry with FDA / BCECF-AM); assay type: cell-based; details: 10 mkM in medium with serum
Method: The effect of the compounds according to the invention on the endocellular pH, embryonic fibroblasts of mouse NIH-3T3 supplied by the All-Russian Collection of Cellular Cultures of the Institute of Cytology of the Russian Academy of Sciences St. Petersburg was investigated. The cells were grown in the DMEM (Sigma) medium containing 2.2 g/l of sodium bicarbonate with addition of 80.0 mkg/ml of gentamicin and 10.0% embryonal veal serum at a temperature of 37° C. in an atmosphere containing 5.0% of carbon dioxide. For these experiments use was also made of a medium buffer with 5.0 mM of HEPES and 15.0 mM of sodium bicarbonate without serum or with addition of 5.0% serum. The cells were calculated with the help of a hemocytometer. A share of the dead cells was determined by colouring trypan blue.
The measurements of the endocellular pHi were carried out with the help of colorants FDA (Sigma) and BCECF-AM (Calbiochem) on a microspectrofluorimeter by a standard technique (Koshevoy Yu. V., Akatov V. S., Grobova M. E. Microspectrofluorimeter for measuring endocellular pH (micro pH)”. Devices and equipment for studies in the field of physical-and-chemical biology and biotechnology. Pushchino, 1990. P. 8-14).
The cells at a temperature of 37° C. were colored within 5 minutes with 5.0 mkM PDA that before the colouring was prepared from a 10.0 mM solution in acetone by dilution for 30 minutes in a phosphatic buffer to 0.1 mM or 2.0 mkM 1.0 mM solution BCECF-AM in DMSO.
The two-wave method of determining pHi was used based on the ratio intensities of fluorescence of the cells on two wavelengths (Akatov V. S. et all), “Endocellular pH and substrate dependence of proliferation of fibroblasts of Chinese hamster, Cytology, 1991, 33 (7), p. 86-94). The fluorescence was excited by light at λ=490 nm, the emission was recorded simultaneously with two photomultipliers on wavelengths λ=535 nm and λ=570 nm. The K-ratio of the fluorescence on two wavelengths was determined with a deduction of the background fluorescence of the medium near the investigated cells for 40-60 individual cells, which are then averaged taking into account the measurement error. A thermostatically controlled table was used that allowed measurements to be conducted at a temperature of 37° C. An account was taken for the photodynamic damage of the pigmented cells during long-time continuous illumination by excited light. The readings were taken from a section of the preparation exposed to light for not more than 5 minutes.
The calibration curves for determining the absolute pHi values by magnitude K were constructed using the Thomas technique (Thomas J. A., Bushbaum R. N., Zimniak A. w Racker E. “Intracellular pH measurements in Ehrlich ascites tumor cells utilizing spectroscopic probe generated in situ”, Biochemistry, 1979, v. 18, p. 2210-2218), for which case the pigmented cells treated for 5-10 minutes with carboxyacidic nigericyn (Calbiochem) at a concentration of 5-10 mkg/ml was placed in a solution with a high content of potassium—130 mM KCl, 1.0 mM MgCl2, 20.0 mM of HEPES) and with pH values from 6.2 to 7.6. The K values were measured in the media with different pH assuming that pHi of the cells equals to the pH of the medium due to the action of nigericyn, which exchanges potassium ions for protons and at a high content of potassium in the medium counterbalances the pH of the medium and cells. Calibration curves were used based on the fluorescence of same medium with addition of 5.0 mkM of fluorescence or BCECF were used to the control the stability of the of the instrument readings.
The cells were colored by pigment BCECF-AM and pHi was measured 10 minutes after incubation in the medium with an appropriate pH value. […]

[3] = system: embryonic fibroblasts of mouse NIH-3T3; details: cells of mice NSO and NIH-3T3, 1-5 mkM, within 15-20 minutes; cited from earlier work

Structure (SMILES)	MA - fall of optical density of plasma, % to the standard (thrombocytes; 10^−3 M, control 60.8 ± 3.4) [%]	MA - fall of optical density of plasma, % to the standard (thrombocytes; 10^−4 M, control 60.0 ± 2.1) [%]	MA - fall of optical density of plasma, % to the standard (thrombocytes; 10^−5 M, control 52.5 ± 2.1) [%]	MA - drop of optical density, % (thrombocytes; 10^−6 M, control 52.8 ± 1.8) [%]	MA - drop of optical density, % (thrombocytes; 10^−7 M, control 51.5 ± 2.1) [%]	number of electrons participating in the reduction reaction ([1]; calculated with Geirovsky-Ilkovich equation)	i ([1]; pH 7.0) [mkA]	−E1/2 ([1]; pH 7.0) [V]	i ([1]; pH 7.2) [mkA]	−E1/2 ([1]; pH 7.2) [V]	i ([1]; pH 7.4) [mkA]	−E1/2 ([1]; pH 7.4) [V]	i ([1]; pH 7.6) [mkA]	−E1/2 ([1]; pH 7.6) [V]	half-wave potential more positive at reverse stroke compared to forward stroke ([1]; polarograms of reverse stroke) [mV]	rise of pHi [2] [pH unit]	increase of pHi [3] [unit]
O=c1[nH]n([C@@H]2O[C@H](CO)[C@@H](O)[C@H]2O)c(=O)c2nccc(O)c12.[Na].[Na] [Compound 4, disodium salt of 4-hydroxy-7-(βD-ribofuranosile)pyrido[2,3-d]-6H-pyridazine-5,8-dione]	49.2 ± 2.3	50.2 ± 2.0	46.2 ± 3.1	50.6 ± 3.1	49.9 ± 3.4	–	–	–	–	–	–	–	–	–	–	–	–
O=c1[nH]n([C@@H]2O[C@H](CO)[C@@H](O)[C@H]2O)c(=O)c2ccccc12.[Na] [Compound 9, sodium salt of 2-(β-D-ribofuranosile)benzo[d]-3H-pyridazine-1,4-dione]	47.3 ± 2.0	53.1 ± 1.8	41.4 ± 3.4	49.4 ± 3.2	51.2 ± 1.7	–	–	–	–	–	–	–	–	–	–	–	–
Nc1cccc2c(=O)n([C@@H]3O[C@H](CO)[C@@H](O)[C@H]3O)[nH]c(=O)c12.[Na] [Compound 10, sodium salt of 5-amino-2-(CP (β-D-ribofuranosile)benzo[d]-3H-pyridazine-1,4-dione]	46.2 ± 2.7	48.7 ± 2.4	40.2 ± 4.0	48.4 ± 2.4	49.8 ± 2.0	4.09	0.23 ± 0.03	0.092 ± 0.02	0.30 ± 0.01	0.09 ± 0.01	0.29 ± 0.02	0.092 ± 0.02	0.31 ± 0.02	0.09 ± 0.01	30.0	–	–
Nc1cnc2c(=O)[nH][nH]c(=O)c2n1.[Na] [Compound 28, sodium salt of 2-amino-pyrazine[2,3-d]-6H-pyridazine-5,8-dione]	49.7 ± 2.2	48.9 ± 2.4	44.2 ± 2.7	–	50.4 ± 3.0	–	–	–	–	–	–	–	–	–	–	–	–
Nc1ncnc2c(=O)n([C@@H]3O[C@H](CO)[C@@H](O)[C@H]3O)[nH]c(=O)c12.[Na] [Compound 31, sodium salt of 4-amino-7-(β-D-ribofuranosile)pyrimido[4,5-d]-6H-pyridazine-5,8-dione]	44.9 ± 2.3	46.7 ± 2.2	39.9 ± 2.1	47.5 ± 1.7	49.5 ± 1.2	–	–	–	–	–	–	–	–	–	–	–	–
CC[C@@]1([C@@H]2O[C@@H]([C@H]3O[C@@](O)(CO)[C@H](C)C[C@@H]3C)C[C@@H]2C)CC[C@H]([C@]2(C)CC[C@]3(C[C@H](O)[C@@H](C)[C@@H]([C@@H](C)[C@@H](OC)[C@H](C)C(=O)O)O3)O2)O1 [monensine, reference compound]	–	–	–	–	–	–	–	–	–	–	–	–	–	–	–	0.12	0.2
